# pIC50: −log10 of the molar value.
# What was measured:
# PI3Kα E545K = PI3Kα E545K (Homo sapiens, UniProt P42336, E545K); assay: PI3Kα E545K mutant in vitro cell based assay, MDA-MB-361 cells; design: MDA-MB-361 (ATCC-HTB-27) cell line (PI3Kα E545K); host or cells: MDA-MB-361; conditions: MDA-MB-361 cell line, 0% FBS, no insulin, 3 hours treatment
# In short: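 Compound exposure lasted 3 hours, in duplicate 10-point 1:3 dilutions at 0.3% DMSO final, on overnight-attached MDA-MB-361 cells carrying PI3Kα E545K in insulin-free, 0% FBS MEM. Lysates read by SureFire AlphaLISA. Relative IC50 from 4-parameter logistic fit versus DMSO and 1 μM GDC-0032 controls.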
# PI3Kα H1047R = target: T1, PI3Kα H1047R (Homo sapiens, UniProt P42336, H1047R); assay: PI3Kα H1047R mutant in vitro cell based assay, MDA-MB-453 cells (AlphaLisa SureFire); conditions: MDA-MB-453 cell line, 0% FBS, 3 hours treatment
# T1 construct: The MDA-MB-453 (ATCC-HTB-131) cell line (PI3Kα H1047R); host or cells: MDA-MB-453
# T1 sequence (P42336 whole entry H1047R): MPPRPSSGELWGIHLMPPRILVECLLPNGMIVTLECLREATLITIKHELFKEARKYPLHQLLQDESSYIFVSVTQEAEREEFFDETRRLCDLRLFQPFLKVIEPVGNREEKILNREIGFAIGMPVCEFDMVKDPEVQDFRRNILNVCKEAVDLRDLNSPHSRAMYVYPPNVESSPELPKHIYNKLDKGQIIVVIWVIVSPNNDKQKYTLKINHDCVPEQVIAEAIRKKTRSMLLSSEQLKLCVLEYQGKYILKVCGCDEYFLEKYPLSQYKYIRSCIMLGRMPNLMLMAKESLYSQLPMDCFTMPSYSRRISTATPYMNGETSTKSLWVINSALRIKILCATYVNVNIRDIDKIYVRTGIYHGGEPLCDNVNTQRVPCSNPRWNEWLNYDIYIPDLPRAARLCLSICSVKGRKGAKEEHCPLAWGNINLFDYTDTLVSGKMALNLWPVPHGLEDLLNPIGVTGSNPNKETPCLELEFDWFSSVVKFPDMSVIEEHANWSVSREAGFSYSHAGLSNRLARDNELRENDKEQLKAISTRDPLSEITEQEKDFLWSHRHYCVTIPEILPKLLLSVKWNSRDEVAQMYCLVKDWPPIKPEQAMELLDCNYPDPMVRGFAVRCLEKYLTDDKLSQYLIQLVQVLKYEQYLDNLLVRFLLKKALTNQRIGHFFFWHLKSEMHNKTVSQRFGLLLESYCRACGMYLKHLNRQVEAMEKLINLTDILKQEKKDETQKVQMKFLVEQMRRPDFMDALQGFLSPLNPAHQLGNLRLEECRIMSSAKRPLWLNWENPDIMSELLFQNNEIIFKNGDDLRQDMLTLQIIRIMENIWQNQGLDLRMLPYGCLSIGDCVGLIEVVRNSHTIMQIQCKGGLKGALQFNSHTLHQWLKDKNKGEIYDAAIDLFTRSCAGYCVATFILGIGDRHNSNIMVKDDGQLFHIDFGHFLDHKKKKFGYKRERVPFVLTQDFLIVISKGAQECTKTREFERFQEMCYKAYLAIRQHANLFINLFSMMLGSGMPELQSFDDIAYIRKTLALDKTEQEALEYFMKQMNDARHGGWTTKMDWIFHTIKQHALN
# T1 sequence (P27986 whole entry partner): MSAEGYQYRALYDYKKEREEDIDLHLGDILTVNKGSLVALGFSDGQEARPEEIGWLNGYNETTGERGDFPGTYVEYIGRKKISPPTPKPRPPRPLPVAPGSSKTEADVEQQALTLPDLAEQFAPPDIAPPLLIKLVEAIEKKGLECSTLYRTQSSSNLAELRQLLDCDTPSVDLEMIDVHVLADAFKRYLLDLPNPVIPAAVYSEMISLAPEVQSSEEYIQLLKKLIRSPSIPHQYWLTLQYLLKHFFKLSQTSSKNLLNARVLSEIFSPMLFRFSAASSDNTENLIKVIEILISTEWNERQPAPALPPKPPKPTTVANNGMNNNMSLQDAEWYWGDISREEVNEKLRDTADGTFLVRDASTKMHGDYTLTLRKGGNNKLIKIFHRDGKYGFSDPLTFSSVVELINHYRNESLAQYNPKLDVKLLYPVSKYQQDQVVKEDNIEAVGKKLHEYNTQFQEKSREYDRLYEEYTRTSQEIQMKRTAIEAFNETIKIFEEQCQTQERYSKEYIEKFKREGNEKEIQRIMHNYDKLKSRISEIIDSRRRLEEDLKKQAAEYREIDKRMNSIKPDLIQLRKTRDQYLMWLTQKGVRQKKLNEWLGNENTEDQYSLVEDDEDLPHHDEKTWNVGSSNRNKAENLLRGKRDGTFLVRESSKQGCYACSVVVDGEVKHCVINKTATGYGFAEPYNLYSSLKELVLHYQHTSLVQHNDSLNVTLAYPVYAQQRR
# Text: PI3K-Alpha Kinase (PI3Kα) Activity: Wild-Type PI3Kα, H1047R Mutant PI3Kα, and E545K Mutant PI3Kα In Vitro Cell Based Assays and Determination of IC50 Values for Inhibitors
# The MDA-MB-453 (ATCC-HTB-131) cell line (PI3Kα H1047R) and MCF-7 (ATCC-HTB-22) cell line (PI3Kα E545K), MDA-MB-361 (ATCC-HTB-27) cell line (PI3Kα E545K), and SKBR3 (ATCC-HTB-30) cell line (wild type PI3Kα) were obtained from the American Type Culture Collection (Manassas, VA). MDA-MB-453 cells were maintained in Dulbecco's Modified Eagle Media (DMEM, Gibco 12430) supplemented with 10% Fetal Bovine Serum, heat inactivated (FBS HI, Gibco 10082), 1× non-essential amino acids (NEAA, Gibco 11140), 1 mM sodium pyruvate (Gibco 11360) and 1× Anti-Anti (Gibco 15240). MCF-7 cells were maintained in Minimum Essential Media (MEM) (Gibco 11095) supplemented with 10% Fetal Bovine Serum, heat inactivated (FBS HI, Gibco 10082), 1× non-essential amino acids (NEAA, Gibco 11140), 1 mM sodium pyruvate (Gibco 11360), 1× Anti-Anti (Gibco 15240) and 10 μg/mL human insulin (Sigma I 9278). MDA-MB-361 cells were maintained in Dulbecco's Modified Eagle Media (DMEM, Gibco 12430) supplemented with 20% Fetal Bovine Serum, heat inactivated (FBS HI, Gibco 10082), 1× non-essential amino acids (NEAA, Gibco 11140), 1 mM sodium pyruvate (Gibco 11360) and 1× Anti-Anti (Gibco 15240). SKBR3 cells were maintained in McCoy's 5A (Gibco 16600) supplemented with 10% Fetal Bovine Serum, heat inactivated (FBS HI, Gibco 10082), and 1× Anti-Anti (Gibco 15240). Cultures were maintained in a humidified incubator at 37° C. under 5% CO2/95% air.
# For compound testing in 0% FBS, MDA-MB-453, MCF-7 and SKBR3 cells were seeded at a density of 1.5×10^4, 1.0×10^4, and 1.0×10^4 cells, respectively, per well in white 384-well plates in 20 μl of Minimum Essential Media (MEM) assay media with 1×NEAA, 1 mM sodium pyruvate, and 1 μg/mL human insulin (Sigma 19278) (Assay Medium); while MDA-MB-361 cells were seeded at a density of 1.5×10^4 per well in white 384-well plates in 20 μl Assay Medium without insulin. After plating, cells were allowed to attach overnight. Compounds dissolved in 10 mM stock solutions in DMSO were serially diluted 1:3 in DMSO to generate a 10-point dilution series and plated using an acoustic liquid handler system (Echo 550 Series Liquid Handler, Labcyte). A 5× intermediate compound dilution plate in MEM with 1×NEAA and 1 mM sodium pyruvate (150 μM starting compound concentration in 1.5% DMSO) was then prepared. Five μl of the intermediate serially diluted compounds were added to the cell plate to final concentrations ranging from […] in 0.3% DMSO. 0.3% DMSO alone was used to establish the maximum (MAX) signal and GDC-0032 at a final concentration of 1 μM was used as a reference compound for the minimum (MIN) signal. After 3 hours treatment, the medium was removed, and the cells were lysed in 10 μL of 1× SureFire Lysis buffer with shaking for 10 minutes at room temperature. The Acceptor Mix (Reaction Buffer 1+Reaction Buffer 2+Activation Buffer+SureFire Ultra Acceptor Beads) was prepared by diluting Activation buffer 25-fold in combined Reaction Buffer 1 and Reaction Buffer 2.
# The Acceptor beads were diluted 50-fold in the combined Reaction Buffers. Five μL of Acceptor Mix was added to each well, the plate was sealed and covered with foil and incubated for 1 hour at room temperature. The Donor Mix (dilution buffer+SureFire Ultra Donor Beads) was prepared by diluting Donor Beads 50-fold in dilution buffer. Five μL of the Donor Mix was added to each well and the plate sealed and covered with foil and incubated for 1-2 hours at room temperature in the dark. The plates were read on a Neo2 plate reader instrument from Biotek using standard AlphaLisa settings.
# Compounds were tested in duplicate and the % inhibition at each compound concentration was used to generate two dose response curves. One IC50 was generated using average % inhibition at each compound concentration. […]
# Sequence of PI3Kα E545K (P42336 whole entry E545K): as the sequence (P42336 whole entry H1047R) above, with E545K, R1047H counted along it
# Sequence of PI3Kα E545K (P27986 whole entry partner): as the sequence (P27986 whole entry partner) above
pIC50 (PI3Kα E545K),pIC50 (PI3Kα H1047R),Compound
> 6.30,> 7.00,"Cc1cc([C@@H](C)Oc2ccc(Cl)nc2C(N)=O)c2oc(-c3ccc4ncsc4c3)c(C)c(=O)c2c1 [Example 12B, 3-[(1R)-1-[2-(1,3-Benzothiazol-6-yl)-3,6-dimethyl-4-oxo-chromen-8-yl]ethoxy]-6-chloro-pyridine-2-carboxamide]"
–,> 7.00,"CCS(=O)(=O)c1ccc(-c2oc3c([C@@H](C)Oc4ccc(Cl)nc4S(N)(=O)=O)cc(C)cc3c(=O)c2C)cc1 [Example 33C, 6-Chloro-3-[(1R)-1-[2-(4-ethylsulfonylphenyl)-3,6-dimethyl-4-oxo-chromen-8-yl]ethoxy]pyridine-2-sulfonamide]"
–,> 7.00,"Cc1cc([C@@H](C)Oc2ccc(Cl)nc2S(N)(=O)=O)c2oc(-c3cnn(C)n3)c(C)c(=O)c2c1 [Example 35A, 6-Chloro-3-[(1R)-1-[3,6-dimethyl-2-(2-methyltriazol-4-yl)-4-oxo-chromen-8-yl]ethoxy]pyridine-2-sulfonamide]"
> 6.30,> 7.00,"Cc1cc([C@@H](C)Oc2ccc(Cl)nc2C(N)=O)c2oc(-c3cnn4c3OCC4)c(C)c(=O)c2c1 [Example 36C, 6-Chloro-3-[(1R)-1-[2-(2,3-dihydropyrazolo[5,1-b]oxazol-7-yl)-3,6-dimethyl-4-oxo-chromen-8-yl]ethoxy]pyridine-2-carboxamide]"
> 6.30,> 7.00,"CONC(=O)c1c(O[C@H](C)c2cc(C)cc3c(=O)c(C)c(-c4ccc5nn(C)cc5c4)oc23)ccc(F)c1F [Example 37A, 6-[(1R)-1-[3,6-Dimethyl-2-(2-methylindazol-5-yl)-4-oxo-chromen-8-yl]ethoxy]-2,3-difluoro-N-methoxy-benzamide]"
> 6.30,> 7.00,Cc1cc([C@@H](C)Oc2ccc(Cl)nc2C(N)=O)c2oc(-c3cc(F)c4nc(C)cn4c3)c(C)c(=O)c2c1 [Example 38C]
> 6.30,> 7.00,"Cc1cc([C@@H](C)Oc2ccc(Cl)nc2C(N)=O)c2oc(-c3ccc4c(cnn4C)c3)c(C)c(=O)c2c1 [Example 40C, 6-Chloro-3-[(1R)-1-[3,6-dimethyl-2-(1-methylindazol-5-yl)-4-oxo-chromen-8-yl]ethoxy]pyridine-2-carboxamide]"
> 6.30,> 7.00,"Cc1cc([C@@H](C)Oc2ccc(Cl)nc2-c2noc(=O)[nH]2)c2oc(-c3ccc4c(c3)OCCN4C)c(C)c(=O)c2c1 [Example 48A, 3-[6-Chloro-3-[(1R)-1-[3,6-dimethyl-2-(4-methyl-2,3-dihydro-1,4-benzoxazin-7-yl)-4-oxo-chromen-8-yl]ethoxy]-2-pyridyl]-4H-1,2,4-oxadiazol-5-one]"
–,> 7.00,"Cc1cc([C@@H](C)Oc2ccc(Cl)nc2-c2noc(=O)[nH]2)c2oc(-c3cnc4c(c3)OCCN4C)c(C)c(=O)c2c1 [Example 49A, 3-[6-Chloro-3-[(1R)-1-[3,6-dimethyl-2-(4-methyl-2,3-dihydropyrido[3,2-b][1,4]oxazin-7-yl)-4-oxo-chromen-8-yl]ethoxy]-2-pyridyl]-4H-1,2,4-oxadiazol-5-lone]"
–,> 7.00,"Cc1cc([C@@H](C)Oc2ccc(Cl)nc2S(N)(=O)=O)c2oc(-c3ccc4nn(CCO)cc4c3)c(C)c(=O)c2c1 [Example 88C, 6-Chloro-3-[(1R)-1-[2-[2-(2-hydroxyethyl)indazol-5-yl]-3,6-dimethyl-4-oxo-chromen-8-yl]ethoxy]pyridine-2-sulfonamide]"
–,> 7.00,"Cc1cc([C@@H](C)Oc2cccnc2S(N)(=O)=O)c2oc(-c3cnn4c3OCC4)c(C)c(=O)c2c1 [Example 95C, 3-[(1R)-1-[2-(2,3-Dihydropyrazolo[5,1-b]oxazol-7-yl)-3,6-dimethyl-4-oxo-chromen-8-yl]ethoxy]pyridine-2-sulfonamide]"
–,> 7.00,"Cc1cc([C@@H](C)Oc2ccc(Cl)nc2C(N)=O)c2oc(-c3cnn4c3OCCC4)c(C)c(=O)c2c1 [Example 108A, 6-Chloro-3-[(1R)-1-[2-(6,7-dihydro-5H-pyrazolo[5,1-b][1,3]oxazin-3-yl)-3,6-dimethyl-4-oxo-chromen-8-yl]ethoxy]pyridine-2-carboxamide]"
